BindingDB's records for doi:10.7270/Q2W957K6 (Pcmd, 2008)

These compounds were tested against Coagulation factor XI (Homo sapiens, UniProt P03951) (assay: human FXIa inhibitor potency, dose response, biochemical (AID 679)).
Coagulation factor XI, sequence (P03951 19-387 limits assumed): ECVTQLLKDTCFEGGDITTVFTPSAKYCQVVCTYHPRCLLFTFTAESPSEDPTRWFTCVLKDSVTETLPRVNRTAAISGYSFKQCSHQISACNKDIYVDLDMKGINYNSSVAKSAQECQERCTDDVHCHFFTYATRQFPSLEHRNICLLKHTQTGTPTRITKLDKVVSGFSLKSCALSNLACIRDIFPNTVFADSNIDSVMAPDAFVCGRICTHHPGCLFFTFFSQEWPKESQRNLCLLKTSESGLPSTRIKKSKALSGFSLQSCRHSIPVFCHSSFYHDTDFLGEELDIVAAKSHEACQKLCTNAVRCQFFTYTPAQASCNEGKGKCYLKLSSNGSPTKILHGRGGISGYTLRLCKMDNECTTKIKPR
Coagulation factor XI, sequence (P03951 388-625 limits assumed): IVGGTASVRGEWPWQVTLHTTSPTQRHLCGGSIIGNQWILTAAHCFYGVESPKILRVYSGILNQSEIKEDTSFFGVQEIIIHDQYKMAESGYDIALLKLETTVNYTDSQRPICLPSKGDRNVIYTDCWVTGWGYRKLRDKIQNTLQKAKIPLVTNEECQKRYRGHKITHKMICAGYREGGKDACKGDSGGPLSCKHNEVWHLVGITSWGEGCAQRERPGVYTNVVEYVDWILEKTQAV
Work on `Cc1cc(NC(=O)COC(=O)c2c(C)nn(Cc3ccccc3)c2C)no1` [[2-[(5-methyl-1,2-oxazol-3-yl)amino]-2-oxoethyl] 1-benzyl-3,5-dimethylpyrazole-4-carboxylate] yielded an IC50 of over 50 µM. In the case of `Cn1c(SCC(=O)NC2CCCCC2)nnc1-c1cccc(N)c1` [2-[5-(3-Amino-phenyl)-4-methyl-4H-[1,2,4]triazol-3-ylsulfanyl]-N-cyclohexyl-acetamide], the IC50 is reported as over 50 µM. `O=C(NC(C(=O)c1ccccc1)n1c(=O)cc[nH]c1=S)c1ccccc1` (stereo not given) gave an IC50 of over 50 µM. For `COc1ccc(OCCSc2nc[nH]n2)cc1` [5-[2-(4-methoxyphenoxy)ethylsulfanyl]-1H-1,2,4-triazole], the IC50 was over 50 µM. `Cc1ccccc1C(=O)N=c1sccn1C` [2-methyl-N-(3-methyl-1,3-thiazol-2-ylidene)benzamide] was tested, and the IC50 was over 50 µM. In the case of `COc1ccccc1-n1cnnc1SCC(=O)Nc1nc(C)c(Cl)cc1Cl` [SMR000153344], the IC50 is reported as 10.2 µM. `COc1ccc(S(=O)(=O)N2CCC(C(=O)N3CCc4ccccc4C3)CC2)cc1Cl` gave an IC50 of 6.26 µM. `O=C(CCSc1nnc2ccc3ccccc3n12)Nc1ccc(F)cc1` showed an IC50 of over 50 µM. In the case of `COC(=O)c1ccc(NC(=O)Cc2c(O)n(-c3ccc(C)cc3)c(=O)n2CC(C)C)cc1` [methyl 4-[2-[1-(4-methylphenyl)-3-(2-methylpropyl)-2,5-bis(oxidanylidene)imidazolidin-4-yl]ethanoylamino]benzoate], the IC50 is reported as over 50 µM. With `CCOc1cc(S(=O)(=O)N(Cc2ccccc2)Cc2ccccc2)c(OCC)cc1-n1cnnn1` [N,N-Dibenzyl-2,5-diethoxy-4-tetrazol-1-yl-benzenesulfonamide] the IC50 was over 50 µM. With `COC(=O)CSc1nnc(C)n1-c1cccc(OC)c1` [[4-(3-Methoxy-phenyl)-5-methyl-4H-[1,2,4]triazol-3-ylsulfanyl]-acetic acid methyl ester] the IC50 was 2.36 µM. With `CCC1CC2CC(NC(C)=O)C1C2` (stereo not given) [N-(5-ethyl-3-bicyclo[2.2.1]heptanyl)ethanamide] the IC50 was 0.588 µM. Compound `CCOc1ccc(S(=O)(=O)NCc2ccc(OC)cc2)c2cccnc12` [MLS000521584] has an IC50 of over 50 µM. For `Cc1ccc(N(C(=O)c2ccccn2)C2(C(=O)NC3CCCC3)CCCCC2)cc1` [N-[1-(cyclopentylcarbamoyl)cyclohexyl]-N-(4-methylphenyl)pyridine-2-carboxamide], the IC50 was over 50 µM. Work on `COc1cc(OC)c2c(N)c(C#N)c(C(F)(F)C(F)(F)F)nc2c1` [4-azanyl-5,7-dimethoxy-2-[1,1,2,2,2-pentakis(fluoranyl)ethyl]quinoline-3-carbonitrile] yielded an IC50 of over 50 µM. In the case of `O=C(CCCN1C(=O)c2ccccc2C1=O)NCC1CCCO1` (stereo not given) [4-[1,3-bis(oxidanylidene)isoindol-2-yl]-N-(oxolan-2-ylmethyl)butanamide], the IC50 is reported as 14.6 µM. In the case of `CCc1ccc(NC(=O)Cn2nc(C(F)(F)F)c3c2CCC3)cc1` [N-(4-Ethyl-phenyl)-2-(3-trifluoromethyl-5,6-dihydro-4H-cyclopentapyrazol-1-yl)-acetamide], the IC50 is reported as over 50 µM. Work on `CCCC1CCc2c(sc(N)c2C(N)=O)C1` (stereo not given) yielded an IC50 of over 50 µM. With `Cc1c(O)ccc(C(=O)CN2C(=O)c3ccccc3C2=O)c1O` [MLS000050535] the IC50 was over 50 µM. `COc1ccc2c(=O)cc(-c3ccccc3)n(C)c2c1` [7-methoxy-1-methyl-2-phenyl-4-quinolinone] showed an IC50 of over 50 µM. `O=S(=O)(Cc1ccccc1)N1CCC(c2nc(-c3cccs3)no2)CC1` [MLS000027341] showed an IC50 of over 50 µM. With `O=S(=O)(Nc1cccc2nsnc12)c1ccccc1` the IC50 was 9.3 µM. Compound `Cc1ccc(-c2csc(N3CCC(NS(=O)(=O)c4ccc5c(c4)OCCO5)CC3)n2)cc1` [N-[1-[4-(4-methylphenyl)-1,3-thiazol-2-yl]piperidin-4-yl]-2,3-dihydro-1,4-benzodioxine-6-sulfonamide] has an IC50 of over 50 µM. `OCCCn1c(-c2ccccc2)nc(=S)c2c1CCCC2` was tested, and the IC50 was over 50 µM. Work on `COC(=O)c1sc(NC(=O)CC(C)C)c(C(=O)OC)c1C` [SMR000141040] yielded an IC50 of over 50 µM. With `CC1=C(C(=O)OC(C)C)C(c2coc3ccccc3c2=O)C2C(=O)CCCC2=N1` (stereo not given) [MLS000533594] the IC50 was over 50 µM. `CCOC(=O)c1c(C)nc2c(c1C)c(=O)oc1ccccc12` [ethyl 2,4-dimethyl-5-oxochromeno[4,3-b]pyridine-3-carboxylate] gave an IC50 of over 50 µM. For `CNC(=O)COC(=O)c1[nH]c(C)c(C(C)=O)c1C` [SMR000152883], the IC50 was over 50 µM. For `Cc1c(NC(=O)c2cc3ccccc3o2)c(=O)n(-c2ccccc2)n1C` [MLS000556522], the IC50 was over 50 µM. `N#Cc1ccc(NC(=O)COC(=O)CNC(=O)C2CCCCC2)cc1` gave an IC50 of over 50 µM. Compound `N#Cc1c(N)nc2c(c1N)=C(N)SC1=NC(=O)CC(c3ccccc3Cl)C=21` (stereo not given) [SMR000147835] has an IC50 of over 50 µM. For `Cc1cnc(C(=O)OCC(=O)NCc2ccccc2)cn1` [[2-(benzylamino)-2-oxoethyl] 5-methylpyrazine-2-carboxylate], the IC50 was over 50 µM. With `O=c1nc(-c2ccccc2)c2cc(Cl)ccc2[nH]1` the IC50 was over 50 µM. Compound `CCOC(=O)c1cc2c(ccn2C)n1CC(=O)N1CCC(C)CC1` [ethyl 1-methyl-4-[2-(4-methylpiperidin-1-yl)-2-oxoethyl]pyrrolo[3,2-b]pyrrole-5-carboxylate] has an IC50 of 0.744 µM. Work on `COC(=O)C(Cc1c[nH]c2ccccc12)NC(C)=O` (stereo not given) [SMR000121078] yielded an IC50 of 6.69 µM. With `CCc1c(O)nc(SCC(=O)NC(C)(C)C)n(-c2ccccc2)c1=O` [SMR000147407] the IC50 was over 50 µM. `CCCc1nc2ccccc2c(=O)n1-c1ccc(OC)cc1` [3-(4-Methoxy-phenyl)-2-propyl-3H-quinazolin-4-one] gave an IC50 of over 50 µM. For `Cc1ccc(C(=O)n2nnc3ccccc32)cc1` [MLS000527467], the IC50 was 2.39 µM. Compound `O=C(NCc1ccccc1)C1CCCN(S(=O)(=O)c2cccc3nonc23)C1` (stereo not given) [1-(2,1,3-benzoxadiazol-4-ylsulfonyl)-N-benzylpiperidine-3-carboxamide] has an IC50 of over 50 µM. For `Cc1ccc(NS(=O)(=O)c2ccc(OCC(=O)N3CCOCC3)cc2)cc1` [N-(4-methylphenyl)-4-(2-morpholin-4-yl-2-oxidanylidene-ethoxy)benzenesulfonamide], the IC50 was over 50 µM. Work on `CC(C)c1nc2ccc(NC(=O)C3CCCCC3)cc2[nH]1` [Cyclohexanecarboxylic acid (2-isopropyl-1H-benzoimidazol-5-yl)-amide] yielded an IC50 of over 50 µM. With `CCn1nc(CC(=O)Nc2nnc(CC(=O)N3CCCC3)s2)c2ccccc2c1=O` [2-(3-ethyl-4-oxo-1-phthalazinyl)-N-[5-[2-oxo-2-(1-pyrrolidinyl)ethyl]-1,3,4-thiadiazol-2-yl]acetamide] the IC50 was over 50 µM. `CCCN(CCC)C(C(=O)Nc1cccc(OC)c1)c1ccccc1` (stereo not given) [SMR000064514] showed an IC50 of over 50 µM. In the case of `COc1ccc(Cn2nnnc2C(c2ccccc2Cl)N2CCC(C(N)=O)CC2)cc1` (stereo not given), the IC50 is reported as over 50 µM. Compound `COc1ccc(OCC(=O)Nc2cc(-c3nn(C)c(=O)c4ccccc34)ccc2OC)cc1` [N-[2-Methoxy-5-(3-methyl-4-oxo-3,4-dihydro-phthalazin-1-yl)-phenyl]-2-(4-methoxy-phenoxy)-acetamide] has an IC50 of over 50 µM. With `CCc1ccc(CC2SC(=C(C#N)C(C)=O)NC2=O)cc1` (stereo not given) [(2E)-2-[5-[(4-ethylphenyl)methyl]-4-oxo-2-thiazolidinylidene]-3-oxobutanenitrile] the IC50 was over 50 µM. With `Cn1nnnc1SCC(=O)N(C1CCCCC1)C1CCCCC1` [N,N-dicyclohexyl-2-[(1-methyl-5-tetrazolyl)thio]acetamide] the IC50 was over 50 µM. `C=CCn1c(=O)c2c(nc(Br)n2Cc2ccccc2Cl)n(C)c1=O` [MLS000555959] showed an IC50 of 0.638 µM. With `COc1cc(C=c2sc3n(c2=O)CCCN=3)ccc1O` [SMR000126740] the IC50 was over 50 µM. Compound `CCC1(c2ccccc2)C(=O)N(C)C(=O)N(C)C1=O` [MLS000532164] has an IC50 of over 50 µM.
